Assay results: paper PMC5921725 (Japanese Journal of Cancer Research : Gann, 1998)
Like-named read-outs stand apart in the source and are kept apart here.

Experiments:
human P-gp [1] = target: T1, human P-gp (Homo sapiens, UniProt P08183); test: Transcellular transport of PSC833 in LLC-PK1 and LLC-GA5-COL150 cells
P-gp = settings: cited from earlier work
[2] = clinical trials, cited from earlier work
human P-gp [3] = target: T1, human P-gp
human P-gp [4] = target: T1, human P-gp; settings: 2 μM inhibitor, LLC-GA5-COL150, after last sampling (3 h)
human P-gp [5] = target: T1, human P-gp; settings: for effect on [14C]doxorubicin transport: LLC-GA5-COL150

T1 sequence (P08183 whole entry): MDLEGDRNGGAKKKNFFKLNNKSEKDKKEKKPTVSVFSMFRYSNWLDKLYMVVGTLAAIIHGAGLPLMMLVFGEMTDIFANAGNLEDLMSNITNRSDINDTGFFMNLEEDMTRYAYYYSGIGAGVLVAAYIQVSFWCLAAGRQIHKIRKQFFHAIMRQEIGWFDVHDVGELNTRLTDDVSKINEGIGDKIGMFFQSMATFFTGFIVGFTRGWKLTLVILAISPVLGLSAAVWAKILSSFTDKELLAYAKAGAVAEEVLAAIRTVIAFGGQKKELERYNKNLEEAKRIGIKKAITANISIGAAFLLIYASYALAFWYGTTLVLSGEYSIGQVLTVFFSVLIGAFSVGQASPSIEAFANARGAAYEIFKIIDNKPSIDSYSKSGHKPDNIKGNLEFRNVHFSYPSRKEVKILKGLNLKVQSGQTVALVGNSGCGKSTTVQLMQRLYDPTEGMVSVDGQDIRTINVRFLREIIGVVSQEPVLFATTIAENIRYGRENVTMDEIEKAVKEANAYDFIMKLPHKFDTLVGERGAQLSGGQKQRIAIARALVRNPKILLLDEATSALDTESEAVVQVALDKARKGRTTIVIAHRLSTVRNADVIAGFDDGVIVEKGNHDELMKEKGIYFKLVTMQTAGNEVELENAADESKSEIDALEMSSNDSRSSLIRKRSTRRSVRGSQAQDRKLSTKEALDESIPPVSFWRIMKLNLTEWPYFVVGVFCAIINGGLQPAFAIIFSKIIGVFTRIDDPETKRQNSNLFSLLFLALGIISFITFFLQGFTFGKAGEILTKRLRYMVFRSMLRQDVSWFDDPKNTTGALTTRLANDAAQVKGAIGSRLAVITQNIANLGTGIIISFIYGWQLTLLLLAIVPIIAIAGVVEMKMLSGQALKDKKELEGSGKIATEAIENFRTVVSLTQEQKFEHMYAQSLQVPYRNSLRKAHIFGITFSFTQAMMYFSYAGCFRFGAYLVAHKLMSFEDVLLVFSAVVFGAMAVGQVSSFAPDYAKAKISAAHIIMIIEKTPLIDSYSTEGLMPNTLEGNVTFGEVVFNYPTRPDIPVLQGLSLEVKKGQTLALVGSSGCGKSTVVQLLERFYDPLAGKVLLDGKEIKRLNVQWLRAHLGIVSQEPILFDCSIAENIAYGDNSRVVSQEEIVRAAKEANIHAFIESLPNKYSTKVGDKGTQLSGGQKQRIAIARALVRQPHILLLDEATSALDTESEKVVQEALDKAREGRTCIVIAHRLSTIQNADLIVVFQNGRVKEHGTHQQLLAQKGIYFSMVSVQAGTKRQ

- transported amount in LLC-GA5-COL150 cells compared with LLC-PK1 cells (human P-gp [1]; 10 μM PSC833, 3 and 6 h, 37C, HPLC-UV): approximately the same
- transport by P-gp (human P-gp [1]; LLC-GA5-COL150 vs LLC-PK1 monolayers, 10 μM, both directions): not transported
- effect on [3H]vinblastine transport (human P-gp [3]; 2 μM inhibitor, LLC-GA5-COL150): almost completely inhibited
- IC50 of PSC833 for vinblastine transport as % of that of Cs-A (human P-gp [3]; Table I): 20%
- IC50 of PSC833 less than that of Cs-A for [3H]vinblastine transport (human P-gp [3]; ratio of IC50 values, Table I): about 5 fold
- intracellular accumulation of [3H]vinblastine (human P-gp [4]): approached the control level
- effect on [14C]doxorubicin transport (human P-gp [5]; 0.1 μM inhibitor): little inhibitory effect
- IC50 of PSC833 for [14C]doxorubicin transport as % of that of Cs-A (human P-gp [5]; Table I): 10%
- effect on [14C]doxorubicin transport (human P-gp [5]; inhibitor concentrations greater than 0.5 μM): strong inhibitory effect
- IC50 of PSC833 less than that of Cs-A for [14C]doxorubicin transport (human P-gp [5]; ratio of IC50 values, Table I): ~10 fold
SMILES: C/C=C/C[C@@H](C)C(=O)[C@H]1C(=O)N[C@@H](C(C)C)C(=O)N(C)CC(=O)N(C)[C@@H](CC(C)C)C(=O)N[C@@H](C(C)C)C(=O)N(C)[C@@H](CC(C)C)C(=O)N[C@@H](C)C(=O)N[C@H](C)C(=O)N(C)[C@@H](CC(C)C)C(=O)N(C)[C@@H](CC(C)C)C(=O)N(C)[C@@H](C(C)C)C(=O)N1C [PSC833, [3′‐keto‐Bmt1]‐Val2]‐cyclosporin]
- more effective than Cs-A in displacing the photoactivatable cyclosporin analogue (P-gp): approximately 2.5 fold
- concentrations at which the AUC of coadministered anticancer drugs increased [2]: 1000 to 2000 ng/mL
- increase in the AUC of doxorubicin ([2]; combination therapy with PSC833 and doxorubicin): 20-199%
